Experimental data as given in US20250197389A1, “NITROGEN-CONTAINING HETEROCYCLIC COMPOUND” (SHANGHAI SHIJIANG BIOTECHNOLOGY CO., LTD, priority 2022, published 2025).

Experiments:
mPTP-active Daoy cell = assay: Inhibitory effect on mPTP-active Daoy cell (Promega CellTiter-Glo, intracellular ATP); assay type: cell-based, human; conditions: Daoy cell transfected with empty virus vector without PPIF shRNA
mPTP-inactive Daoy cell = assay: Inhibitory effect on mPTP-inactive Daoy cell (PPIF shRNA; Promega CellTiter-Glo, intracellular ATP); assay type: cell-based, human; conditions: Daoy cell transfected with virus vector carrying PPIF shRNA
Description: The activity of mitochondria permeability transition pore (mPTP) was regulated by the PPIF protein. […] PPIF protein activity was restricted by the expression level of PPIF protein in cell.

## COc1ccc2c(c1OC)CN1CCc3cc4c(cc3C1=C2Cc1ccc(OC(F)(F)F)cc1)OCO4 [AB31866]
mPTP-active Daoy cell; Homo sapiens, Daoy
  IC50: 6.78 µM
mPTP-inactive Daoy cell; Homo sapiens, Daoy
  IC50: 3.38 µM

## COc1ccc2c(c1OC)CN1CCc3cc4c(cc3C1=C2Cc1ccc(C(C)C)cc1)OCO4 [AB31870]
mPTP-active Daoy cell; Homo sapiens, Daoy
  IC50: 3.94 µM
mPTP-inactive Daoy cell; Homo sapiens, Daoy
  IC50: 1.86 µM

## CCCCC1c2c(c(Br)cc(OC)c2OC)C=C2c3cc4c(cc3CCN21)OCO4 (stereo not drawn) [AB31873]
mPTP-active Daoy cell; Homo sapiens, Daoy
  IC50: 6.44 µM
mPTP-inactive Daoy cell; Homo sapiens, Daoy
  IC50: 3.13 µM

## COc1ccc2c(c1OCCCBr)CN1CCc3cc4c(cc3C1C2)OCO4 (stereo not drawn) [AB31878]
mPTP-active Daoy cell; Homo sapiens, Daoy
  IC50: 10.4 µM
mPTP-inactive Daoy cell; Homo sapiens, Daoy
  IC50: 11 µM

## CCCCCCC1c2c(ccc(OC)c2OC)C=C2c3cc4c(cc3CCN21)OCCO4 (stereo not drawn) [AB31880]
mPTP-active Daoy cell; Homo sapiens, Daoy
  IC50: 2.93 µM
mPTP-inactive Daoy cell; Homo sapiens, Daoy
  IC50: 1.13 µM

## COc1ccc2c(c1OCCCCOc1ccccc1)C(C)N1CCc3cc4c(cc3C1=C2)OCO4 (stereo not drawn) [AB31881]
mPTP-active Daoy cell; Homo sapiens, Daoy
  IC50: 4.34 µM
mPTP-inactive Daoy cell; Homo sapiens, Daoy
  IC50: 2.12 µM

## COc1ccc2c(c1OCCCBr)C(C)N1CCc3cc4c(cc3C1=C2)OCO4 (stereo not drawn) [AB31887]
mPTP-active Daoy cell; Homo sapiens, Daoy
  IC50: 6.47 µM
mPTP-inactive Daoy cell; Homo sapiens, Daoy
  IC50: 3.17 µM

## COc1ccc2c(c1OCCCCCCCl)C(C)N1CCc3cc4c(cc3C1=C2)OCO4 (stereo not drawn) [AB31888]
mPTP-active Daoy cell; Homo sapiens, Daoy
  IC50: 5.46 µM
mPTP-inactive Daoy cell; Homo sapiens, Daoy
  IC50: 2.68 µM

## COc1ccc2c(c1NCCc1ccccc1)C(C)N1CCc3cc4c(cc3C1=C2)OCO4 (stereo not drawn) [AB31895]
mPTP-active Daoy cell; Homo sapiens, Daoy
  IC50: 3.15 µM
mPTP-inactive Daoy cell; Homo sapiens, Daoy
  IC50: 1.46 µM

## COc1ccc2c(c1OC(=O)CC13CC4CC(CC(C4)C1)C3)C(C)N1CCc3cc4c(cc3C1=C2)OCO4 (stereo not drawn) [AB31896]
mPTP-active Daoy cell; Homo sapiens, Daoy
  IC50: 5.02 µM
mPTP-inactive Daoy cell; Homo sapiens, Daoy
  IC50: 2.42 µM

## COc1ccc2c(c1OCCCCCCBr)C(C)N1CCc3cc4c(cc3C1=C2)OCO4 (stereo not drawn) [AB31897]
mPTP-active Daoy cell; Homo sapiens, Daoy
  IC50: 3.43 µM
mPTP-inactive Daoy cell; Homo sapiens, Daoy
  IC50: 1.58 µM

## COc1ccc2c(c1OC)C(C)N1CCc3cc4c(cc3C1=C2)OCCO4 (stereo not drawn) [AB31898]
mPTP-active Daoy cell; Homo sapiens, Daoy
  IC50: 9.54 µM
mPTP-inactive Daoy cell; Homo sapiens, Daoy
  IC50: 4.43 µM

## COc1ccc2c(c1OC/C=C(\C)CCC=C(C)C)C(C)N1CCc3cc4c(cc3C1=C2)OCO4 (stereo not drawn) [AB35402]
mPTP-active Daoy cell; Homo sapiens, Daoy
  IC50: 1.72 µM
mPTP-inactive Daoy cell; Homo sapiens, Daoy
  IC50: 0.81 µM

## COc1ccc2c(c1OC/C=C(\C)CCC=C(C)C)C(C(Cl)(Cl)Cl)N1CCc3cc4c(cc3C1=C2)OCO4 (stereo not drawn) [AB35405]
mPTP-active Daoy cell; Homo sapiens, Daoy
  IC50: 2.68 µM
mPTP-inactive Daoy cell; Homo sapiens, Daoy
  IC50: 1.21 µM

## COc1ccc2c(c1OCCCCCCNC(=O)OC(C)(C)C)C(C(Cl)(Cl)Cl)N1CCc3cc4c(cc3C1=C2)OCO4 (stereo not drawn) [AB35407]
mPTP-active Daoy cell; Homo sapiens, Daoy
  IC50: 2.83 µM
mPTP-inactive Daoy cell; Homo sapiens, Daoy
  IC50: 1.34 µM

## COc1ccc2c(c1OC)C(C)N1CCc3cc4c(cc3C1=C2CCCc1ccccc1)OCO4 (stereo not drawn) [AB35411]
mPTP-active Daoy cell
  IC50: 3.51 µM
mPTP-inactive Daoy cell
  IC50: 1.78 µM

## CC1c2c(ccc3c2OCO3)C=C2c3cc4c(cc3CCN21)OCO4 (stereo not drawn) [AB35413]
mPTP-active Daoy cell; Homo sapiens, Daoy
  IC50: 13.3 µM
mPTP-inactive Daoy cell; Homo sapiens, Daoy
  IC50: 6.87 µM

## COc1ccc2c(c1OCCCCCCNC(=O)OC(C)(C)C)C(C)N1CCc3cc4c(cc3C1=C2)OCO4 (stereo not drawn) [AB35415]
mPTP-active Daoy cell; Homo sapiens, Daoy
  IC50: 4.79 µM
mPTP-inactive Daoy cell; Homo sapiens, Daoy
  IC50: 2.26 µM

## COc1ccc2c(c1OCCNC(=O)OC(C)(C)C)C(C(Cl)(Cl)Cl)N1CCc3cc4c(cc3C1=C2)OCO4 (stereo not drawn) [AB35416]
mPTP-active Daoy cell; Homo sapiens, Daoy
  IC50: 10.6 µM
mPTP-inactive Daoy cell; Homo sapiens, Daoy
  IC50: 5.11 µM

## COc1ccc2c(c1OC)C(C(Cl)(Cl)Cl)N1CCc3cc4c(cc3C1=C2CCCc1ccccc1)OCO4 (stereo not drawn) [AB35417]
mPTP-active Daoy cell; Homo sapiens, Daoy
  IC50: 3.62 µM
mPTP-inactive Daoy cell; Homo sapiens, Daoy
  IC50: 1.61 µM

## CCCCCC1=C2c3cc4c(cc3CCN2C(C(Cl)(Cl)Cl)c2c1ccc(OC)c2OC)OCO4 (stereo not drawn) [AB35418]
mPTP-active Daoy cell; Homo sapiens, Daoy
  IC50: 3.25 µM
mPTP-inactive Daoy cell; Homo sapiens, Daoy
  IC50: 1.56 µM

## COc1ccc2c(c1OCCN1CCCCC1)C(C(Cl)(Cl)Cl)N1CCc3cc4c(cc3C1=C2)OCO4 (stereo not drawn) [AB35420]
mPTP-active Daoy cell; Homo sapiens, Daoy
  IC50: 9.55 µM
mPTP-inactive Daoy cell; Homo sapiens, Daoy
  IC50: 4.59 µM

## ClC(Cl)(Cl)C1c2c(ccc3c2OCO3)C=C2c3cc4c(cc3CCN21)OCO4 (stereo not drawn) [AB35421]
mPTP-active Daoy cell; Homo sapiens, Daoy
  IC50: > 50 µM
mPTP-inactive Daoy cell; Homo sapiens, Daoy
  IC50: 24.9 µM

## CCCCCC1=C2c3cc4c(cc3CCN2C(C)c2c1ccc(OC)c2OC)OCO4 (stereo not drawn) [AB35422]
mPTP-active Daoy cell; Homo sapiens, Daoy
  IC50: 5.27 µM
mPTP-inactive Daoy cell; Homo sapiens, Daoy
  IC50: 2.59 µM

## COc1ccc2c(c1OCCCCNC(=O)OC(C)(C)C)C(C(Cl)(Cl)Cl)N1CCc3cc4c(cc3C1=C2)OCO4 (stereo not drawn) [AB35423]
mPTP-active Daoy cell
  IC50: 4.82 µM
mPTP-inactive Daoy cell
  IC50: 2.36 µM

## COc1ccc2c(c1OCCNC(=O)OC(C)(C)C)C(C)N1CCc3cc4c(cc3C1=C2)OCO4 (stereo not drawn) [AB35424]
mPTP-active Daoy cell; Homo sapiens, Daoy
  IC50: 13.8 µM
mPTP-inactive Daoy cell; Homo sapiens, Daoy
  IC50: 6.18 µM

## CCCCCCC1c2c(ccc3c2OCO3)C=C2c3cc4c(cc3CCN21)OCO4 (stereo not drawn) [AB35426]
mPTP-active Daoy cell; Homo sapiens, Daoy
  IC50: 2.71 µM
mPTP-inactive Daoy cell; Homo sapiens, Daoy
  IC50: 1.03 µM
